US9662351B2, “Plasma and brain pharmacokinetics of previously unexplored lithium salts” (University of South Florida, priority 2014, dated 2017)

What was measured:
[1] = rat
Method: Male Sprague Dawley rats weighing 200-250 grams were dosed via oral gavage with 4 meq. […] Blood and brain were collected and lithium was measured using atomic absorption spectroscopy (AAS).
Male Sprague Dawley rats weighing 200-250 grams were purchased from Harlan (Harlan Sprague Dawley Inc., Indianapolis, Ind.). […] The rats were allowed to acclimate for a period of one week before any experiments are carried out. […] They were allowed free access to food and water throughout the experiment. […] Animals in each treatment group were euthanized at 2, 24, 48, and 72 hours (n=3 per time point per lithium salt) and blood was collected by cardiac puncture and carefully perfused with a pressure controlled pump to maintain microvasculature integrity before removing brain tissue. Blood was centrifuged at 1600×g at room temperature for 10 minutes and plasma was separated. A 500 mL aliquot was diluted 10 fold in a 5% TCA and 10% isopropyl alcohol (IPA) solution, vortexed and allowed to sit for 10 minutes in order to precipitate proteins. These aliquots were centrifuged at 3000×g for 30 minutes and the supernatant was transferred to clean tubes prior to measuring lithium content using atomic absorption spectroscopy (AAS). Brains were rinsed with PBS, weighed, and an equal volume of concentrated HNO3 was added. The brains were heated in this nitric acid solution for 1 hour, allowed to cool to room temperature, then centrifuged at 3000×g for 1 hour. The supernatant was removed and diluted 10 fold in 10% IPA prior to measuring lithium content using AAS (Shimadzu AA-6200). Peak height measurements were carried out referring to values obtained for standards of known concentrations. […] Two tailed t-tests were used to assess the statistical significance at each time point for the pharmacokinetic curves. The criterion for rejection of the null hypothesis was P<0.05.

[2] = rat, same protocol; previously reported [7]; peaks rapidly; cited from earlier work

Row | Compound | AUC(0-72) ([1]; brain lithium, 0-72 h, oral gavage 4 meq. kg^−1 elemental lithium, mean±SEM) | brain lithium exposure compared with other lithium salts (e.g. lithium lactate) ([1]; brain, oral) | plasma lithium exposure compared with other lithium salts (e.g. lithium lactate) ([1]; plasma, oral) | time to elimination of lithium [2]
1 | O=C([O-])c1ccccc1O.[Li+] [Lithium Salicylate, Lithium salicylate] | 153.1 ± 7.66 µg/g | better brain exposure | comparatively lower plasma lithium exposure | 
2 | O=C([O-])[O-].[Li+].[Li+] [lithium carbonate] |  |  |  | ≤ 48 h
